One assay addresses T1, Androgen receptor (Rattus norvegicus, UniProt P15207).
T1 sequence (P15207 whole entry): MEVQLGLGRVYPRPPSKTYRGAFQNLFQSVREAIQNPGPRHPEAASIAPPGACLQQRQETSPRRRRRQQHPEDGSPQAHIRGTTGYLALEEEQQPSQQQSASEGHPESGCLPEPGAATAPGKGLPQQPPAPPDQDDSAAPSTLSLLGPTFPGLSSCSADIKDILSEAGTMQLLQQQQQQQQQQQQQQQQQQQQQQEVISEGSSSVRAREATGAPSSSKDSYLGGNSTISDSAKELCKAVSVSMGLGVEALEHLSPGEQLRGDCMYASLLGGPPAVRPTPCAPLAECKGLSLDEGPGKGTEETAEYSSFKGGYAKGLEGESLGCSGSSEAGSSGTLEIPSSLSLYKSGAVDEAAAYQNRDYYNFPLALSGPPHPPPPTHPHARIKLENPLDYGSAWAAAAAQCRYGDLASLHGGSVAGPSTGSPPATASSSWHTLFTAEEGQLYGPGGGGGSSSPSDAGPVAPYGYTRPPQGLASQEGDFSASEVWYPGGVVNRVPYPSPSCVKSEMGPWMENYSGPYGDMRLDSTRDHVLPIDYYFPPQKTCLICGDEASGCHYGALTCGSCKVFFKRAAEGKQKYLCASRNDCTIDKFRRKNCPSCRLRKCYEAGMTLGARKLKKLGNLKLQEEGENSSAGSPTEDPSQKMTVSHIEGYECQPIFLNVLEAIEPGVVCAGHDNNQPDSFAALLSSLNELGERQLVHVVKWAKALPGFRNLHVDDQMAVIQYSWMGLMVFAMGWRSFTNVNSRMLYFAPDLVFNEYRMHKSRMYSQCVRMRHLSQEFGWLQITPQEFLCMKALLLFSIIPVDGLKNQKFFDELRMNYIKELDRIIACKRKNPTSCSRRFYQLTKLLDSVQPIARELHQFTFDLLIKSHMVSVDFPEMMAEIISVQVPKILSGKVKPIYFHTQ
The format is functional.

Assay [1] deals with T2, Histamine H1 receptor (Homo sapiens, UniProt P35367). The format is functional, cell-based.
Assay [2] has as its target T2, Histamine H1 receptor. The format is functional, cell-based. The source holds these as a separate data set.
Assay [3] concerns the target 5-hydroxytryptamine receptor 7 (Homo sapiens, UniProt P34969).
Assay [4] has as its target T3, Alpha-1A adrenergic receptor (Homo sapiens, UniProt P35348).
T3 sequence (P35348 whole entry): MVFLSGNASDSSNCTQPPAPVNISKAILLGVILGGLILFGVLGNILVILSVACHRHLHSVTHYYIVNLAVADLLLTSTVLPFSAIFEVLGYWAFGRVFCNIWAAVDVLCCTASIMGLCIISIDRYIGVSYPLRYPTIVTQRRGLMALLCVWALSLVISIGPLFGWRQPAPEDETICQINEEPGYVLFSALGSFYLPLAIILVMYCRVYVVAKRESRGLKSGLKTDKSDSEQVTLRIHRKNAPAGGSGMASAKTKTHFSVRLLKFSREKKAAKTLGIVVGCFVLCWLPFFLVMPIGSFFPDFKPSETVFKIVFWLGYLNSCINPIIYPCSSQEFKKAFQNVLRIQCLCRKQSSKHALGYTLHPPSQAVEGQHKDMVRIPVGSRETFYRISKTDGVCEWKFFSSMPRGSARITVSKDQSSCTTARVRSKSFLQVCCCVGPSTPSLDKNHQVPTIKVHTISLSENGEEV

For another assay, the target named is Substance-P receptor (Homo sapiens, UniProt P25103).
The target of assay [5] is 5-hydroxytryptamine receptor 6 (Homo sapiens, UniProt P50406).
In the next assay the target is Estrogen receptor beta (Homo sapiens, UniProt Q92731).
Assay [6] concerns the target T3, Alpha-1A adrenergic receptor. This is another data set of the same source.
Further: assay procedure not described here.

Sequence of 5-hydroxytryptamine receptor 6 (P50406 whole entry): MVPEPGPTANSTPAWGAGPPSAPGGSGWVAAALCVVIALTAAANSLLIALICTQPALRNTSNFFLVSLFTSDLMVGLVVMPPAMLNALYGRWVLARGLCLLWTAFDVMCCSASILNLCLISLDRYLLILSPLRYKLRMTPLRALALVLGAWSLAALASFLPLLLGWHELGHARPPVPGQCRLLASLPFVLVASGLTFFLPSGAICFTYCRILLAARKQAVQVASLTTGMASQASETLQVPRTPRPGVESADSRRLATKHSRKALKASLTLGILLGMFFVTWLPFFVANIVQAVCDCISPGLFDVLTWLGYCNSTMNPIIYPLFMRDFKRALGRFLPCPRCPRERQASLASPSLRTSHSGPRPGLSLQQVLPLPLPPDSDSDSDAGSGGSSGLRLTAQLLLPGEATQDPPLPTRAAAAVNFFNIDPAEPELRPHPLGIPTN
Sequence of 5-hydroxytryptamine receptor 7 (P34969 whole entry): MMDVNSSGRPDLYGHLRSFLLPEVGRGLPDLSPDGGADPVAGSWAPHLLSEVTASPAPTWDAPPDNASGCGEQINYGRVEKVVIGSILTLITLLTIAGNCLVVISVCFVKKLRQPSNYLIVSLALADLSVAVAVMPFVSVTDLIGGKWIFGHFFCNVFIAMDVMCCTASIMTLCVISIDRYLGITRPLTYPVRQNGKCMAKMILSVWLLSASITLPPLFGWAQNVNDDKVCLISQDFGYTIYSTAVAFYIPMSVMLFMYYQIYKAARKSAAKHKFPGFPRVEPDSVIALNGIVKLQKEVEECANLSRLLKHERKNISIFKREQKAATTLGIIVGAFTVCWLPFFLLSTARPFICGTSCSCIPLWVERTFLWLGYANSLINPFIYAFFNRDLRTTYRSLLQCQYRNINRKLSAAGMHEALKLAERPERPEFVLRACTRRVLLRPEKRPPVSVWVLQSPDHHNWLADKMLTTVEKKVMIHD
Sequence of Estrogen receptor beta (Q92731 whole entry): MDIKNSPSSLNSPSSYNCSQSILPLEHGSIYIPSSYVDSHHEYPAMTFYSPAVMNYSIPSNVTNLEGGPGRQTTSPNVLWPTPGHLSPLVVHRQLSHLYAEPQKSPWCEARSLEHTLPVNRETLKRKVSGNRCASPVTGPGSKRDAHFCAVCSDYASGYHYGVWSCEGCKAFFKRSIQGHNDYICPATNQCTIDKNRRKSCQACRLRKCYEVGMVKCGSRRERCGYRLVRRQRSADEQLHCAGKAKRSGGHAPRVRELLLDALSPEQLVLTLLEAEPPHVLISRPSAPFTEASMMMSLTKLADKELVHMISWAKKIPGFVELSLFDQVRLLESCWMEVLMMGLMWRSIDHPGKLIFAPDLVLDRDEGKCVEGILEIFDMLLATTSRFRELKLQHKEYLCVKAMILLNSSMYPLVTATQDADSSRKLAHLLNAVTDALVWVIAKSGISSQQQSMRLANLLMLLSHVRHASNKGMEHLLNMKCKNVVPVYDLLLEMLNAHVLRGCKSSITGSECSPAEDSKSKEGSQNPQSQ
Sequence of Substance-P receptor (P25103 whole entry): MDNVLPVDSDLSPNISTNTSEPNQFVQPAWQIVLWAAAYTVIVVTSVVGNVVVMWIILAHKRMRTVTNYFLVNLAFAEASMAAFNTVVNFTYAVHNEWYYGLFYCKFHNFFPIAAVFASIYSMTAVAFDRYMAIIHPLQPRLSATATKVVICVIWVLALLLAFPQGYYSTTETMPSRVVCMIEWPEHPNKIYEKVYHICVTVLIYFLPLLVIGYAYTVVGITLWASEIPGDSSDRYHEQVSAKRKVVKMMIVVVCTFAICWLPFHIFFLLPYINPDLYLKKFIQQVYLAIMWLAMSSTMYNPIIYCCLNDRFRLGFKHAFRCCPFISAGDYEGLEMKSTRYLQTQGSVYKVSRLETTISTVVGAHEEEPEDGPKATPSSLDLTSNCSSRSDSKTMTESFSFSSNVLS
T2 sequence (P35367 whole entry): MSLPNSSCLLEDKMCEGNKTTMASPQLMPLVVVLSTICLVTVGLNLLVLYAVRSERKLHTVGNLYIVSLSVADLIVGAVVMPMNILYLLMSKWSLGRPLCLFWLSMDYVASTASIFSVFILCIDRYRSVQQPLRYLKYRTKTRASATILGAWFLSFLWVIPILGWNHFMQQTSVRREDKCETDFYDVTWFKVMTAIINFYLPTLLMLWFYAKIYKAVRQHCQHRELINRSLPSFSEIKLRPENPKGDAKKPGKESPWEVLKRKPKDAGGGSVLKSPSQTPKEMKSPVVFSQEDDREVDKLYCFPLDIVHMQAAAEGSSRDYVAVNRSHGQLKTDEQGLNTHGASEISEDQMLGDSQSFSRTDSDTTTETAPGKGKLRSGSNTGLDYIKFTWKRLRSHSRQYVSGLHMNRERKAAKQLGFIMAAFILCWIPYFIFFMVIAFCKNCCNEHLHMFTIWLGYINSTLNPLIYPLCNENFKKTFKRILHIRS

One may read the AC50 as the midpoint of the concentration-response curve, whichever way the signal moves. For the compound `C[C@@H](NCCCc1cccc(C(F)(F)F)c1)c1cccc2ccccc12`, the AC50 on Androgen receptor, on Histamine H1 receptor [1] and on Histamine H1 receptor [2] was over 30 µM each time.
`Cc1onc(-c2ccccc2)c1-c1ccc(S(N)(=O)=O)cc1` [VALDECOXIB]: the AC50 in assay [3] is over 10 µM; in [4], over 10 µM; on Substance-P receptor it was over 10 µM; in assay [5], over 10 µM; on Estrogen receptor beta, over 30 µM.
Take `O=C(O)CO` [GLYCOLIC ACID]: the AC50 in [6] is over 30 µM.
Take `CN(C)CCc1c[nH]c2ccc(Cn3cncn3)cc12` [RIZATRIPTAN]: the AC50 in assay [3] is over 10 µM; in assay [4], over 10 µM; at Substance-P receptor, over 10 µM; in assay [5] it was over 10 µM; on Histamine H1 receptor [1], over 30 µM; on Estrogen receptor beta, over 30 µM. The compound also came in with an AC50 at Histamine H1 receptor [2] of 20 µM.
For the compound `Nc1ccc(S(=O)(=O)Nc2nccs2)cc1` [SULFATHIAZOLE], the AC50 (in assay [4]; at Substance-P receptor) was over 10 µM each time.
For `CC(S)C(=O)NCC(=O)O` (stereo not drawn) [TIOPRONIN], the AC50 on Androgen receptor is over 30 µM.
On to `COc1ccc(CC2c3cc(OC)c(OC)cc3CC[N+]2(C)CCC(=O)OCCCCCOC(=O)CC[N+]2(C)CCc3cc(OC)c(OC)cc3C2Cc2ccc(OC)c(OC)c2)cc1OC` (stereo not drawn), for which the AC50 at Androgen receptor is over 30 µM.
Consider `COc1ccccc1Oc1c(NS(=O)(=O)c2ccc(C(C)(C)C)cc2)nc(-c2ncccn2)nc1OCCO` [BOSENTAN], for which the AC50 on Histamine H1 receptor [1], at Estrogen receptor beta and at Histamine H1 receptor [2] was over 30 µM in each case.
As to `C[C@H]1c2cccc(O)c2C(=O)C2=C(O)[C@]3(O)C(=O)C(C(N)=O)=C(O)[C@@H](N(C)C)[C@@H]3[C@@H](O)[C@@H]21` [DOXYCYCLINE], the AC50 (in assay [4]; at Substance-P receptor) was over 10 µM each time.
Regarding `CC(C)Cc1ccc(C(C)C(=O)O)cc1` (stereo not drawn) [IBUPROFEN], the AC50 in [3] was over 10 µM; in [4] it was over 10 µM; at Substance-P receptor, over 10 µM; in assay [5], over 10 µM; on Estrogen receptor beta, over 30 µM.
With `COc1ccccc1OCCNCC(O)COc1cccc2[nH]c3ccccc3c12` (stereo not drawn) [CARVEDILOL], the AC50 was over 30 µM on Androgen receptor; 1.58 µM in assay [3]; 0.0099 µM in [4]; 0.481 µM on Substance-P receptor; 1.25 µM in assay [5]; over 30 µM at Estrogen receptor beta.
On to `CC(=O)O[C@]1(C(C)=O)CC[C@H]2[C@@H]3C=C(C)C4=CC(=O)CC[C@@H]4[C@H]3CC[C@@]21C` [NOMEGESTROL ACETATE], for which the AC50 at Androgen receptor is over 30 µM.
For `CCCN(CCC)C(=O)Cc1c(-c2ccc(Cl)cc2)nc2ccc(Cl)cn12` [ALPIDEM], the AC50 in assay [3], in [4] and in assay [5] was over 10 µM in each case.
As for `CCCC(CCC)C(=O)O` [VALPROIC ACID], the AC50 (in [3]; at Substance-P receptor; in assay [5]) was over 10 µM each time.
In the case of `COc1cc2nc(N3CCN(C(=O)C4CCCO4)CC3)nc(N)c2cc1OC` (stereo not drawn) [TERAZOSIN], the figures for the AC50 on Substance-P receptor and at Estrogen receptor beta were over 10 µM and over 30 µM, respectively.
For the compound `CO[C@H]1/C=C/O[C@@]2(C)Oc3c(C)c(O)c4c(O)c(c(/C=N/N5CCN(C)CC5)c(O)c4c3C2=O)NC(=O)/C(C)=C\C=C\[C@H](C)[C@H](O)[C@@H](C)[C@@H](O)[C@@H](C)[C@H](OC(C)=O)[C@@H]1C` [RIFAMPIN], the AC50 was over 10 µM in assay [3], over 10 µM in assay [4], over 10 µM in [5] and over 30 µM on Estrogen receptor beta.
Consider `OC[C@@H](O)[C@@H](O)[C@H](O)[C@@H](O)CO` [SORBITOL], for which the AC50 in assay [6] was over 30 µM.
In [6], `CN1C(C(=O)Nc2ccccn2)=C(O)c2ccccc2S1(=O)=O` [PIROXICAM] showed an AC50 of over 30 µM.
As for `C=C[C@H]1C[N@@]2CC[C@H]1C[C@@H]2[C@@H](O)c1ccnc2ccc(OC)cc12` [QUINIDINE], the AC50 on Histamine H1 receptor [1] and on Histamine H1 receptor [2] was over 30 µM throughout.
